Results: patent US20100160262A1, “COMPOSITIONS AND METHODS FOR MODULATING SIRTUIN ACTIVITY” (priority 2008, published 2010)

What was measured:
[1] = test system: HIV LTR luciferase (Tat/AcTat transactivation); assay: Nuclear microinjection of synthetic Tat or AcTat with HIV LTR luciferase reporter into HeLa cells; format: cell-based; conditions: for basal HIV promoter activity / transcriptional activity of AcTat (transactivation of the HIV promoter): TSA 400 nM or nicotinamide 5 mM for four hours, siRNA 48 hours before microinjection
Procedure: Subconfluent MEFs (70%) were grown on Cellocate coverslips (Eppendorf, Westbury, N.Y.), and nuclear microinjections were performed at room temperature with an automated injection system (Eppendorf Micromanipulator 5171 together with Eppendorf Transjector 5246). Samples were prepared as a 20 μl injection mix containing the HIV LTR luciferase reporter or 5xUAS luciferase (each 100 ng/μl), RSV-Tat (10 ng/μl) or Ga14-VP16 (50 ng/μl), CMV-CyclinT1 (100 ng/μl), CMV-SIRT1 (100 or 300 ng/μl) together with CMV-GFP (50 ng/μl) in sterile water. Six hours after microinjection, cells were examined under a Nikon Eclipse TE300 inverted fluorescent microscope to determine the number of GFP-positive cells, washed in cold phosphate buffer, and stored at −70° C. for luciferase assays (Promega). In HeLa cells, synthetic Tat or AcTat proteins (each 30 or 100 ng/μl) were co-injected with the wildtype or mutant HIV LTR luciferase reporters (each 100 ng/μl) together with CMV-GFP (50 ng/μl) and harvested four hours after injection. Cells were treated immediately after injection with 5,6-dichlorobenzimidazole riboside (DRB; 10 or 50 μM; Sigma), TSA (400 nM), or nicotinamide (5 mM). Microinjections in siRNA-treated cells were performed 48 hours after siRNA transfection.

RSV LTR = assay: RSV luciferase control reporter in transfected HeLa cells; format: cell-based, Rous sarcoma virus; conditions: 1 μM
Procedure: (§1) In co-transfection experiments, human CMV-SIRT1 or CMV-SIRT1H363Y (600 ng) was co-transfected into HeLa cells plated in six-well plates with the HIV LTR luciferase reporter (200 ng) or the LTRΔNF-kB-luciferase reporter (200 ng) and increasing amounts of RSV-Tat (0 ng, 2 ng, 20 ng, and 200 ng) using the lipofectamine reagents (Invitrogen). In the control experiment, RSV-Tat was replaced by RSV luciferase (200 ng), and the HIV LTR luciferase construct was replaced by the HIV LTR CAT reporter. […] The RSV-luciferase construct was used as described above. […] Cells were harvested 8 hr later and processed for luciferase assays.

[2] = test system: EF-1α promoter GFP expression; assay: HIV-based lentiviral vector with EF-1α promoter driving GFP in Jurkat T cells; format: cell-based; conditions: 1 μM, 36 hours
Procedure: (§2) The HIV molecular clone (HIV-R7/E^−/GFP) containing the GFP open reading frame in place of the nef gene and a frameshift mutation in the env gene as well as the method to generate pseudotyped viral particles with VSV-G was previously described. Jordan et al. (2003) Embo J 22: 1868-1877. The number of infective particles per ml was established by infecting 3×10^5 Jurkat cells with different amounts of viral suspension. The titer of the viral stock was measured by flow cytometry analysis of GFP expression 48 hours after infection. The pHR′-EF-1α/GFP construct is a minimal nonreplicative HIV-1 genome containing a heterologous promoter (EF-1α) driving GFP expression. Naldini et al. (1996) Science 272: 263-267. […]. Zufferey et al. (1997) Nat Biotechnol 15: 871-875. All vectors for the production of HIV-based lentiviral vectors were provided by D. Trono, University of Geneva, Switzerland. Jurkat T cells were incubated overnight with HIV-R7/E^−/GFP or pHR′-EF-1α/GFP viral particles at a theoretical multiplicity of infection (m.o.i.) of 0.5 in 24-well plates. […] Viral infection was monitored 36 hours later by flow cytometry analysis using a Calibur FACScan (Becton Dickinson).

p53 = p53 acetylation; format: cell-based; conditions: 1 μM
[3] = test system: Tat-dependent HIV transcription (HIV LTR luciferase); assay: Tat transactivation of HIV LTR luciferase reporter in transfected HeLa cells; format: cell-based; conditions: ~1 μM, 8 hours
Procedure: as §1

[4] = test system: HIVNL4-3 containing the GFP open reading frame in place of nef; assay: Single-cycle HIV infection of Jurkat T cells, GFP expression by flow cytometry; format: cell-based; conditions: 1 μM, 36 hours after overnight infection
Procedure: as §2

SIRT1 = target: T1, SIRT1 (Homo sapiens, UniProt Q96EB6); assay: In vitro Tat deacetylation assay with immunoprecipitated SIRT1; format: biochemical; conditions: immunoprecipitated SIRT1, AcTat, NAD+; western blot α-AcTat; nicotinamide 5 mM, TSA 400 nM
T1 construct: made in house; host or cells: 293 cells (HEK 293), transient transfection, anti-FLAG M2 agarose immunoprecipitate
T1 sequence (Q96EB6 1-747): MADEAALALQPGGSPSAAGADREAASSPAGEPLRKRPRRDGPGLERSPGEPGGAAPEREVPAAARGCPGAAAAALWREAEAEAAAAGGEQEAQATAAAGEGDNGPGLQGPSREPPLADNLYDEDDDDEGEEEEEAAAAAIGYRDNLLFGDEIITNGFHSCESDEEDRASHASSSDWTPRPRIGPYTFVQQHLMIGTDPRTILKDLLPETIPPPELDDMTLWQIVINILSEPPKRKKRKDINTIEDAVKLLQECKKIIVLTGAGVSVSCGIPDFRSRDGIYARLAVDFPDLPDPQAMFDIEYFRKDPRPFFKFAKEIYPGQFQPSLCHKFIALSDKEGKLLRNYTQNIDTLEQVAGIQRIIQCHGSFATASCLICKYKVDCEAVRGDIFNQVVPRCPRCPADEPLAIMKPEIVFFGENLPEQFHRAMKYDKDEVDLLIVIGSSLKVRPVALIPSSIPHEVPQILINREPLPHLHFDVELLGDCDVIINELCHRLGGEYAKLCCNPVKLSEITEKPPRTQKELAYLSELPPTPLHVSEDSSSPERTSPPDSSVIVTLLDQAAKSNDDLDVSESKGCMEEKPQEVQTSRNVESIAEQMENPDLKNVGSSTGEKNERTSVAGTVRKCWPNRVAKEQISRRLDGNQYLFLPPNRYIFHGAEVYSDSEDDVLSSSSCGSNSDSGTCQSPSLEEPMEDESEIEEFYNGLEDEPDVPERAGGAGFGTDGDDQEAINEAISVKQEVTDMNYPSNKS
Procedure: Human SIRT1-7 FLAG-tagged plasmids were transfected in 293 cells with lipofectamine reagent (Invitrogen). Cells were lysed 24 hours after transfection with lysis buffer (50 mM Tris-Hcl, pH 7.5, 0.5 mM EDTA, 0.5% NP40, 150 mM NaCl) in the presence of protease inhibitors (Roche Molecular Biochemicals, Indianapolis, Ind.). Equal amounts of total proteins were immunoprecipitated with α-FLAG (anti-FLAG antibody) coupled to M2 agarose beads (Sigma, St Louis, Mo.), for 2 hours at 4° C. Immunoprecipitated material was washed twice with immunoprecipitation (IP) buffer and one time with SIRT deacetylation buffer (50 mM Tris-HCl pH 9, 4 mM MgCl2, 0.2 mM DTT). The beads were resuspended in 100 μl SIRT deacetylation buffer containing 1 μg synthetic Tat (72 amino acids) carrying an N-terminal biotin label and an acetyl group at position 50. Kaehlcke et al. (2003), supra. Reactions containing TSA (400 nM, WACO Bioproducts, Richmond, Va.) or nicotinamide (5 mM, Sigma) were preincubated for 10 min at room temperature. […] Reactions were stopped by the addition of SDS loading buffer, boiled, and after brief centrifugation, analyzed by western blotting with rabbit α-AcTat antibodies (Kaehlcke et al. (2003), supra) or horseradish peroxidase-conjugated streptavidin (Jackson Immunoresearch Laboratories, West Grove, Pa.). SIRT1-7 proteins were detected with polyclonal α-FLAG antibodies (Sigma).

## OC[C@H]1O[C@@H](n2cnc3cc(Cl)c(Cl)cc32)[C@H](O)[C@@H]1O [DRB, 5,6-dichlorobenzimidazole riboside]
[1]; DRB 10 or 50 μM, four hours
  transactivation by both Tat proteins (Tat and AcTat): inhibited in a dose-dependent manner

## O=C1Oc2ccc3cc(Br)ccc3c2CC1c1ccccc1 (stereo not drawn) [HR73]
RSV LTR
  activity of the RSV LTR: did not suppress
[2]
  GFP expression from the EF-1α promoter: not affected
p53
  acetylation of p53: induced hyperacetylation
[3]
  suppression of Tat-dependent HIV transcription: 3 fold
[4]
  reduction of HIV gene expression as measured by GFP expression: 5 fold

## CC(/C=C/C(=O)NO)=C\[C@@H](C)C(=O)c1ccc(N(C)C)cc1 [TSA]
[1]
  basal HIV promoter activity: enhanced
  transcriptional activity of AcTat (transactivation of the HIV promoter): enhanced
SIRT1
  SIRT1-mediated deacetylation of Tat: no effect

## NC(=O)c1cccnc1 [nicotinamide]
[1]
  basal HIV promoter activity: stimulating
  transcriptional activity of AcTat (transactivation of the HIV promoter): blocked
SIRT1
  SIRT1-mediated deacetylation of Tat: completely inhibited
